Experiments:
[1] = target: T1, N6-adenine DNA methyltransferase M•TaqI (Thermus aquaticus, UniProt P14385); assay: Enzyme reaction: M•TaqI-catalyzed coupling of cofactor with duplex oligodeoxynucleotide 3•4, followed by anion exchange chromatography; type: biochemical; settings: duplex 3•4 10 μM, M•TaqI 10 μM, pH 6.0, 37°C
T1 construct: made in house
Procedure: The DNA methyltransferase M•TaqI free of cofactor was prepared as described before (B. Holz, S. Klimasauskas, S. Serva, E. Weinhold, Nucleic Acids Res. 1998, 26, 1076-1083). The enzyme-catalyzed reaction was carried out in a mixture (500 μl) of M•TaqI (5 nmol, 10 μM), duplex oligodeoxynucleotide 3.4 (5 nmol, 10 μM), compound 2 (500 nmol, 1 mM), Tris acetate (20 mM, pH 6,0), potassium acetate (50 mM), magnesium acetate (10 mM) and Triton X-100 (0.01%) at 37°C. The progress of the reaction was monitored by anion exchange chromatography. Aliquots (50 μl) of the reaction mixture were withdrawn after different incubation times, mixed with an urea solution (100 μl, 6 M) and injected onto an anion exchange column (Poros 10 HQ, 10 μm, 4.6×100 mm, PerSeptive Biosystems, Germany). Compounds were eluted with aqueous potassium chloride (0.5 M for 5 min, followed by a linear gradient to 1 M in 30 min, 4 ml/min) in Tris chloride buffer (10 mM, pH 7.6).
The enzyme-catalyzed reaction was carried out in a mixture (500 μl) of cofactor free M-Taql (5 nmol, 10 μM), duplex oligodeoxynucleotide 3•4 (5 nmol, 10 μM), compound 9 (10 nmol, 20 μM), Tris acetate (20 mM, pH 6.0), potassium acetate (50 mM), magnesium acetate (10 mM) and Triton X-100 (0,01%) at 37° C. The progress of the reaction was monitored by anion exchange chromatography (Poros 10 HQ, 10 μm, 4,6×10 mm, PerSeptive Biosystems, Germany). Compounds were eluted with aqueous potassium chloride (0.2 M for 5 min, followed by a linear gradient to 0.5 M in 5 min and to 1 M in 30 min) in Tris chloride buffer (10 mM, pH 7.0). Complete conversion to a new product (containing DNA and protein) with a retention time of 7.9 min was observed after 15 h. […] Then, a solution (4 μl) of proteinase K (31 mg/ml), Tris chloride (50 mM, pH 8.0) and calcium chloride (1 mM) was added, and the reaction mixture was incubated at 37° C. for 1 h. The proteolytic fragmentation was monitored by anion exchange chromatography as described above. […]

[2] = target: T2, C5-cytosine DNA methyltransferase M•HhaI (Haemophilus parahaemolyticus, UniProt P05102); assay: Enzyme reaction: M•HhaI-catalyzed coupling of cofactor with duplex oligodeoxynucleotide 6•7, followed by anion exchange chromatography; type: biochemical, Haemophilus haemolyticus; settings: duplex 6•7 10 μM, M•HhaI 10 μM, compound 2 1 mM, pH 7.4, 25°C
T2 construct: made in house
T2 sequence (P05102 1-327): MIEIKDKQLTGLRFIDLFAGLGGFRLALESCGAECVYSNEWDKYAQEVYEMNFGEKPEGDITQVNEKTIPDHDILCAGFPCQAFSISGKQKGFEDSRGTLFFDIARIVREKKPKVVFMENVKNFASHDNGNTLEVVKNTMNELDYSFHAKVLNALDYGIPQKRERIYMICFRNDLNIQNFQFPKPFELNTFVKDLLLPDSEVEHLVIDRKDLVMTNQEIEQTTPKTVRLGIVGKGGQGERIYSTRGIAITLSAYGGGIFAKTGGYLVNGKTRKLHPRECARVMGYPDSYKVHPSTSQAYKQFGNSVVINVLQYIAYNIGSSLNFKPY
Procedure: The DNA methyltransferase M•HhaI free of cofactor was prepared as described before (B. Holz, S. Klimasauskas, S. Serva, E. Weinhold, Nucleic Acids Res. 1998, 26, 1076-1083). The enzyme-catalyzed reaction was carried out in a mixture (500 μl) of M•HhaI (5 nmol, 10 μM), duplex oligodeoxynucleotide 6•7 (5 nmol, 10 μM), compound 2 (500 nmol, 1 mM), Tris chloride (10 mM, pH 7.4), sodium chloride (50 mM), EDTA (0,5 mM) and Triton X-100 (0.01%) at 25° C. The progress of the reaction was monitored by anion exchange chromatography. Aliquots (50 μl) of the reaction mixture were withdrawn after different incubation times, and injected onto an anion exchange column (Poros 10 HQ, 10 μm, 4.6×100 mm, PerSeptive Biosystems, Germany). Compounds were eluted with aqueous potassium chloride (0 M for 5 min, followed by a linear gradient to 0.5 M in 5 min and to 1 M in 30 min, 4 ml/min) in Tris chloride buffer (20 mM, pH. 7.6).

[3] = target: T1, N6-adenine DNA methyltransferase M•TaqI; assay: Fluorescent labeling of plasmid DNA (pUC19) using M•TaqI; type: biochemical; settings: M•TaqI 133 nM, pUC19 28 nM, compound 9 20 μM
Procedure: The enzyme-catalyzed labeling reaction was carried out in a mixture (500 μl) of cofactor free M•TaqI (133 nM), pUC19 DNA (28 nM, 4 recognition sites for M•TaqI), compound 9 (20 μM), Tris acetate (20 mM, pH 6,0), potassium acetate (50 mM), magnesium, acetate (10 mM) and Triton X-100 (0,01%) at 65° C. The progress of the reaction was monitored by anion exchange chromatography (NUCLEOGEN DEAE 4000-7, 7 μm, 125×6,2 mm, Machery-Nagel, Düren, Germany). Compounds were eluted with aqueous potassium chloride (0.2 M for 5 min followed by a linear gradient to 1 M in 30 min) in Tris chloride buffer (10 mM, pH 7.0) containing acetonitrile (20%). The chromatograms of the anion exchange chromatography after different incubation times are shown in FIG. 6 (A: UV detection at 260 nm; B: fluorescence detection). The delay between the observed UV absorption and the fluorescence is due to a spatial separation of the UV detector and the fluorescence detector. The labeling reaction yielding fluorescent pUC19 was completed after 8 h.

[4] = target: T2, C5-cytosine DNA methyltransferase M•HhaI; assay: Fluorescent labeling of plasmid DNA (pUC19) using M•HhaI; type: biochemical, Haemophilus haemolyticus; settings: M•HhaI 730 nM, pUC19 40 nM, compound 9 20 μM, pH 6.85, 37°C, 20 h
Procedure: The enzyme-catalyzed labeling reaction was carried out in a mixture (100 μl) of M-HhaI (730 nM), pUC19 DNA (40 nM, 17 recognition sites for M•HhaI), compound 9 (20 μM), Tris chloride (10 mM, pH 6.85), sodium chloride (50 mM), EDTA (0,5 mM) and P-mercaptoethanol (2 mM) at 37° C. A parallel control experiment was performed without M•HhaI. Aliquots of both incubations after 20 h reaction time were analyzed by anion exchange chromatography as described above (see example 2, 3.1). The obtained chromatograms are shown in FIG. 8 (A: UV detection at 260 nm; B: fluorescence detection).

T1 sequence (P14385 whole entry): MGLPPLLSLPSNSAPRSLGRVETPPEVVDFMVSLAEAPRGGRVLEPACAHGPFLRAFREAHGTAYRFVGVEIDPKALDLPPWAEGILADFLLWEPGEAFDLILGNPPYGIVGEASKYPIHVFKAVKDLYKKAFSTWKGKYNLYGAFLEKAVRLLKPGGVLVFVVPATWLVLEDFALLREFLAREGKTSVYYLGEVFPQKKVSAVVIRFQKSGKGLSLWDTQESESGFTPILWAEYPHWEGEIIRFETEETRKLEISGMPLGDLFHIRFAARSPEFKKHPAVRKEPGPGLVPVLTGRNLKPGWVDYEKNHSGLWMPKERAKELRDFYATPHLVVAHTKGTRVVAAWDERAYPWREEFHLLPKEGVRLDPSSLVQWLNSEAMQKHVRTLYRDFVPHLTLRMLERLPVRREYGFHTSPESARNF

| SMILES | M•TaqI-catalyzed coupling of the cofactor with DNA ([1]; compound 2 1 mM) | M•HhaI-catalyzed coupling of the cofactor to duplex oligodeoxynucleotide 6•7 [2] | fluorescence signal of pUC19 in anion exchange chromatography after labeling with M•TaqI ([3]; 65°C, different incubation times) | time to completion of the labeling reaction yielding fluorescent pUC19 ([3]; pH 6.0, 65°C) | cofactor function in M•HhaI-catalyzed fluorescent labeling of pUC19 [4] | coupling reaction of the fluorescent cofactor with DNA catalyzed by M•TaqI ([1]; compound 9 20 μM) | time to complete conversion of duplex 3•4 to new product (containing DNA and protein) ([1]; compound 9 20 μM) |
| --- | --- | --- | --- | --- | --- | --- | --- |
| Nc1ncnc2c1ncn2[C@@H]1O[C@H](CN2CC2)[C@@H](O)[C@H]1O [Compound 2, N-Adenosylaziridine] | quantitative, sequence- and base-specific | quantitative | – | – | – | – | – |
| CN(C)c1cccc2c(S(=O)(=O)NCCCCNc3nc4c(N)ncnc4n3[C@@H]3O[C@H](CN4CC4)C(O)[C@@H]3O)cccc12 (stereo partly shown) [Compound 9, 8-Amino[1″-(N″-dansyl)-4″-aminobutyl]-5′-(1-aziridinyl)-5′-deoxy adenosine] | – | – | increase of the fluorescence signal with the incubation time | 8 h | function as a cofactor for M•HhaI | quantitative and base-specific | 15 h |
